Peptide text beside a SMILES is read from it.
What was measured:
[1] = molecular target: T1, Bcr/Abl fusion protein (Homo sapiens) (UniProt P00519+P11274); experiment: Ratio of peptide phosphorylation by Bcr-Abl and c-Abl protein tyrosine kinases; format: protein assay
[2] = molecular target: T1, Bcr/Abl fusion protein (Homo sapiens); experiment: Peptide phosphorylation by Bcr-Abl protein tyrosine kinase at 25 degree for 30 min in a cell-free system; format: protein assay
[3] = molecular target: Tyrosine-protein kinase ABL1 (Homo sapiens) (UniProt P00519); experiment: Peptide phosphorylation by c-Abl protein tyrosine kinase at 25 degree for 30 min in a cell-free system
Chain of Tyrosine-protein kinase ABL1 (Homo sapiens) (P00519 whole entry, the tested form may be a part): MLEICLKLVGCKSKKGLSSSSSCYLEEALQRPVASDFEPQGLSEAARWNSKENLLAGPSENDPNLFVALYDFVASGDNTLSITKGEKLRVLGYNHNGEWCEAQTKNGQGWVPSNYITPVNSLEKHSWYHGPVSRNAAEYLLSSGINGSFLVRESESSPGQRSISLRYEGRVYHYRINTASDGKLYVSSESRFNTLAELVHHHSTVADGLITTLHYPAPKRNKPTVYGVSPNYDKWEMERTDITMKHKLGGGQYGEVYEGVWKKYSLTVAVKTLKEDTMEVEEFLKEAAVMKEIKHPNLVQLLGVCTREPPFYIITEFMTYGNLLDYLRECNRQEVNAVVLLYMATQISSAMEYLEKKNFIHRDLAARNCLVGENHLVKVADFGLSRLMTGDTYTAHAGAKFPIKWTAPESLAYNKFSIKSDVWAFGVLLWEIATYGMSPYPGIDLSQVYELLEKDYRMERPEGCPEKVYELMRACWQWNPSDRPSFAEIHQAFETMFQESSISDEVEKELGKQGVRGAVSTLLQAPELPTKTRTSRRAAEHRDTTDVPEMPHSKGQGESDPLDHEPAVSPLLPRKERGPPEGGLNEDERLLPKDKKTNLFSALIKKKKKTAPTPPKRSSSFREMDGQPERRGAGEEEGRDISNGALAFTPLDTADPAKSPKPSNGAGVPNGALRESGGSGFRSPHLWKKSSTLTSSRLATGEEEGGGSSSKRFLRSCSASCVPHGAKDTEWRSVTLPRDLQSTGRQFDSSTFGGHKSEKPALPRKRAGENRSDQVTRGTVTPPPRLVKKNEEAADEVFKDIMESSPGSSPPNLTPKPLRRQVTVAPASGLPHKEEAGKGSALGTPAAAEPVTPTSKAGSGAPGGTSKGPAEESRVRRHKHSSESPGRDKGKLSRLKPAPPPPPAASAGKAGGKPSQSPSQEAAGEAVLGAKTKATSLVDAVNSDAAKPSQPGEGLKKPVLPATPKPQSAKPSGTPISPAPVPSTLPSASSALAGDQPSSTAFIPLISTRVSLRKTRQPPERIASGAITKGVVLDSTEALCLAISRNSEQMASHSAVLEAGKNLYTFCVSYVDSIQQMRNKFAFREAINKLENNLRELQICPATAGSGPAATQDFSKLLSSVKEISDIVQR

[4] = molecular target: Tyrosine-protein kinase ABL1 (Homo sapiens) (UniProt P00519); experiment: Vmax/Km value for peptide phosphorylation by c-Abl protein tyrosine kinase
[5] = molecular target: T1, Bcr/Abl fusion protein (Homo sapiens); experiment: Vmax/Km value for peptide phosphorylation by Bcr-Abl protein tyrosine kinase; format: protein assay
[6] = tested on: CC[C@H](C)[C@H](NC(=O)[C@H](CCC(=O)O)NC(=O)[C@@H](N)CCC(=O)O)C(=O)N[C@@H](Cc1ccc(O)cc1)C(=O)N[C@@H](CCC(=O)O)C(=O)N[C@@H](CCC(=O)O)C(=O)N1CCC[C@H]1C(=O)N[C@@H](Cc1ccc(O)cc1)C(=O)O; experiment: (§1) Vmax value for peptide phosphorylation by Bcr-Abl protein tyrosine kinase; format: protein assay
[7] = tested on: CC[C@H](C)[C@H](NC(=O)[C@H](CCC(=O)O)NC(=O)[C@@H](N)CCC(=O)O)C(=O)N[C@@H](Cc1ccc(O)cc1)C(=O)N[C@@H](C)C(=O)N[C@@H](CCC(=O)O)C(=O)N[C@@H](Cc1c[nH]c2ccccc12)C(=O)N[C@@H](Cc1ccccc1)C(=O)O; experiment: as §1; format: protein assay
[8] = tested on: CC[C@H](C)[C@H](NC(=O)[C@H](CCC(=O)O)NC(=O)[C@H](CC(=O)O)NC(=O)[C@H](Cc1ccc(O)cc1)NC(=O)[C@@H](NC(=O)[C@H](CCC(=O)O)NC(=O)[C@@H](N)CCC(=O)O)[C@@H](C)CC)C(=O)N[C@@H](Cc1ccc(O)cc1)C(=O)O; experiment: as §1; format: protein assay
[9] = tested on: CC[C@H](C)[C@H](NC(=O)[C@H](CCC(=O)O)NC(=O)[C@@H](N)CCC(=O)O)C(=O)N[C@@H](Cc1ccc(O)cc1)C(=O)N[C@@H](Cc1ccc(O)cc1)C(=O)N[C@@H](Cc1ccc(O)cc1)C(=O)N[C@H](C(=O)N[C@@H](Cc1c[nH]cn1)C(=O)O)C(C)C; experiment: as §1; format: protein assay
[10] = tested on: CC[C@H](C)[C@H](NC(=O)[C@H](CCC(=O)O)NC(=O)[C@@H](N)CCC(=O)O)C(=O)N[C@@H](Cc1ccc(O)cc1)C(=O)N[C@@H](CC(=O)O)C(=O)N[C@@H](Cc1ccc(O)cc1)C(=O)N[C@@H](C)C(=O)N[C@@H](Cc1ccc(O)cc1)C(=O)O; experiment: as §1; format: protein assay
[11] = tested on: CC[C@H](C)[C@H](NC(=O)[C@H](CCCN=C(N)N)NC(=O)[C@@H](N)CCC(=O)O)C(=O)N[C@@H](Cc1ccc(O)cc1)C(=O)N[C@@H](C)C(=O)N[C@@H](CCCN=C(N)N)C(=O)N[C@H](C(=O)N[C@@H](CCCCN)C(=O)O)[C@@H](C)O; experiment: as §1; format: protein assay
[12] = tested on: CC[C@H](C)[C@H](NC(=O)[C@H](CCC(=O)O)NC(=O)[C@@H](N)CCC(=O)O)C(=O)N[C@@H](Cc1ccc(O)cc1)C(=O)N[C@@H](CCC(=O)O)C(=O)N[C@@H](CCC(=O)O)C(=O)N1CCC[C@H]1C(=O)N[C@@H](Cc1ccc(O)cc1)C(=O)O; experiment: (§2) Km value for peptide phosphorylation by Bcr-Abl protein tyrosine kinase; format: protein assay
[13] = tested on: CC[C@H](C)[C@H](NC(=O)[C@H](CCC(=O)O)NC(=O)[C@@H](N)CCC(=O)O)C(=O)N[C@@H](Cc1ccc(O)cc1)C(=O)N[C@@H](C)C(=O)N[C@@H](CCC(=O)O)C(=O)N[C@@H](Cc1c[nH]c2ccccc12)C(=O)N[C@@H](Cc1ccccc1)C(=O)O; experiment: as §2; format: protein assay
[14] = tested on: CC[C@H](C)[C@H](NC(=O)[C@H](CCC(=O)O)NC(=O)[C@H](CC(=O)O)NC(=O)[C@H](Cc1ccc(O)cc1)NC(=O)[C@@H](NC(=O)[C@H](CCC(=O)O)NC(=O)[C@@H](N)CCC(=O)O)[C@@H](C)CC)C(=O)N[C@@H](Cc1ccc(O)cc1)C(=O)O; experiment: as §2; format: protein assay
[15] = tested on: CC[C@H](C)[C@H](NC(=O)[C@H](CCC(=O)O)NC(=O)[C@@H](N)CCC(=O)O)C(=O)N[C@@H](Cc1ccc(O)cc1)C(=O)N[C@@H](Cc1ccc(O)cc1)C(=O)N[C@@H](Cc1ccc(O)cc1)C(=O)N[C@H](C(=O)N[C@@H](Cc1c[nH]cn1)C(=O)O)C(C)C; experiment: as §2; format: protein assay
[16] = tested on: CC[C@H](C)[C@H](NC(=O)[C@H](CCC(=O)O)NC(=O)[C@@H](N)CCC(=O)O)C(=O)N[C@@H](Cc1ccc(O)cc1)C(=O)N[C@@H](CC(=O)O)C(=O)N[C@@H](Cc1ccc(O)cc1)C(=O)N[C@@H](C)C(=O)N[C@@H](Cc1ccc(O)cc1)C(=O)O; experiment: as §2; format: protein assay
[17] = tested on: CC[C@H](C)[C@H](NC(=O)[C@H](CCCN=C(N)N)NC(=O)[C@@H](N)CCC(=O)O)C(=O)N[C@@H](Cc1ccc(O)cc1)C(=O)N[C@@H](C)C(=O)N[C@@H](CCCN=C(N)N)C(=O)N[C@H](C(=O)N[C@@H](CCCCN)C(=O)O)[C@@H](C)O; experiment: as §2; format: protein assay

T1 sequence (P00519 whole entry, looked up, the tested form may be a part): as the sequence (P00519 whole entry, the tested form may be a part) above
T1 sequence (P11274 whole entry, looked up, the tested form may be a part): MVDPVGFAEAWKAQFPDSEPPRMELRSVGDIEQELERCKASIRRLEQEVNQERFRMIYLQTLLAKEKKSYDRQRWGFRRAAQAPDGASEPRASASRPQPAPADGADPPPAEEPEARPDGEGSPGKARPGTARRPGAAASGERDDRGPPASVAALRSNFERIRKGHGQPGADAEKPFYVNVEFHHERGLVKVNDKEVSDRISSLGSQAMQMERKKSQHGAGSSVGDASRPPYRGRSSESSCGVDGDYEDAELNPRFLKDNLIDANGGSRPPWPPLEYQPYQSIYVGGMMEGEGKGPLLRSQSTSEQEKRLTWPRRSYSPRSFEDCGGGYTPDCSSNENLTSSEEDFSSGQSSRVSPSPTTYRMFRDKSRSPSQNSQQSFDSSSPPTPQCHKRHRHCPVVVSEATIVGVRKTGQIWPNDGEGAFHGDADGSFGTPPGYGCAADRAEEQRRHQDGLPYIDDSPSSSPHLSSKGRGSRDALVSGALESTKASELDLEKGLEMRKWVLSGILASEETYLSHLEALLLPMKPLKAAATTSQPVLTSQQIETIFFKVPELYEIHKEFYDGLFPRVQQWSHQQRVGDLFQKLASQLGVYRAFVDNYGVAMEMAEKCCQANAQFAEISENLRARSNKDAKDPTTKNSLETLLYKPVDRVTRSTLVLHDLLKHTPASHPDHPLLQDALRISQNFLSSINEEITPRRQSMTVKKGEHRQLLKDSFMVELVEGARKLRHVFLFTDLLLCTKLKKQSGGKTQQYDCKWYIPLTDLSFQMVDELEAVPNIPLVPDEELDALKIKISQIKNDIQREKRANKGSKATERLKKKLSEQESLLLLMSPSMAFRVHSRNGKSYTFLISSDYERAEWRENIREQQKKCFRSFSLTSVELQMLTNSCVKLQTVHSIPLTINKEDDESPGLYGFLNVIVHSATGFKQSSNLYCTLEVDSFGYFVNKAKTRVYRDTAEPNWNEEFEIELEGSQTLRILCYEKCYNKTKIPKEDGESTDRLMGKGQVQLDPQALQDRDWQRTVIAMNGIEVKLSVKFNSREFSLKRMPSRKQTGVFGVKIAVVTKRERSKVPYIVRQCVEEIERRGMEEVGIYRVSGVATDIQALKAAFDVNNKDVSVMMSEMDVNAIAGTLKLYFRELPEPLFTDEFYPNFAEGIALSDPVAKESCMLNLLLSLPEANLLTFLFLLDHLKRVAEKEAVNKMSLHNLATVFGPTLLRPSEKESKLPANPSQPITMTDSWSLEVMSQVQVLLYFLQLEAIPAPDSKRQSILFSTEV
Chain of Bcr/Abl fusion protein (Homo sapiens) (from UniProt P00519+P11274) (P11274 whole entry, looked up, the tested form may be a part): as above
Chain of Bcr/Abl fusion protein (Homo sapiens) (from UniProt P00519+P11274) (P00519 whole entry, looked up, the tested form may be a part): as the sequence (P00519 whole entry, the tested form may be a part) above

Row | Compound | Ratio [1] | Activity [2] | Activity [3] | Vmax / Km (10^-9 L min-1) [4] | Vmax / Km (10^-9 L min-1) [5] | further results
1 | CC[C@H](C)[C@H](NC(=O)[C@H](CCC(=O)O)NC(=O)[C@H](Cc1ccc(O)cc1)NC(=O)[C@@H](NC(=O)[C@H](CC(=O)O)NC(=O)[C@@H](N)CC(=O)O)[C@@H](C)CC)C(=O)N[C@@H](Cc1ccc(O)cc1)C(=O)N[C@@H](Cc1c[nH]c2ccccc12)C(=O)O (H-DDIYEIYW-OH) | 4.92 | 4.35 pM | 0.88 pmol | – | – | –
2 | CC[C@H](C)[C@H](NC(=O)[C@H](CCC(=O)O)NC(=O)[C@@H](N)CCC(=O)O)C(=O)N[C@@H](Cc1ccc(O)cc1)C(=O)N[C@@H](C)C(=O)N[C@@H](CCC(=O)O)C(=O)N[C@@H](Cc1c[nH]c2ccccc12)C(=O)N[C@@H](Cc1ccccc1)C(=O)O (H-EEIYAEWF-OH) | 3.98 | 22.6 pM | 5.69 pmol | 14 | 97.6 | –
3 | CC[C@H](C)[C@H](NC(=O)[C@H](CCC(=O)O)NC(=O)[C@H](CC(=O)O)NC(=O)[C@H](Cc1ccc(O)cc1)NC(=O)[C@@H](NC(=O)[C@H](CCC(=O)O)NC(=O)[C@@H](N)CCC(=O)O)[C@@H](C)CC)C(=O)N[C@@H](Cc1ccc(O)cc1)C(=O)O (H-EEIYDEIY-OH) | 3.44 | 14.4 pM | 4.18 pmol | 3.75 | 17.1 | –
4 | CC[C@H](C)[C@H](NC(=O)[C@H](CCC(=O)O)NC(=O)[C@@H](N)CCC(=O)O)C(=O)N[C@@H](Cc1ccc(O)cc1)C(=O)N[C@@H](CC(=O)O)C(=O)N[C@@H](Cc1ccc(O)cc1)C(=O)N[C@@H](C)C(=O)N[C@@H](Cc1ccc(O)cc1)C(=O)O (H-EEIYDYAY-OH) | 3.33 | 22.4 pM | 6.73 pmol | 7.46 | 56.4 | –
5 | CC[C@H](C)[C@H](NC(=O)[C@H](CCC(=O)O)NC(=O)[C@@H](N)CCC(=O)O)C(=O)N[C@@H](Cc1ccc(O)cc1)C(=O)N[C@@H](CCC(=O)O)C(=O)N[C@@H](CCC(=O)O)C(=O)N1CCC[C@H]1C(=O)N[C@@H](Cc1ccc(O)cc1)C(=O)O (H-EEIYEEPY-OH) | 3.38 | 25.5 pM | 7.56 pmol | 12.1 | 98.8 | –
6 | CC[C@H](C)[C@H](NC(=O)[C@H](CCC(=O)O)NC(=O)[C@@H](N)CCC(=O)O)C(=O)N[C@@H](Cc1ccc(O)cc1)C(=O)N[C@@H](Cc1ccc(O)cc1)C(=O)N[C@@H](Cc1ccc(O)cc1)C(=O)N[C@@H](CCC(=O)O)C(=O)N[C@@H](CC(C)C)C(=O)O (H-EEIYYYEL-OH) | 3.52 | 4.48 pM | 1.27 pmol | – | – | –
7 | CC[C@H](C)[C@H](NC(=O)[C@H](CCC(=O)O)NC(=O)[C@@H](N)CCC(=O)O)C(=O)N[C@@H](Cc1ccc(O)cc1)C(=O)N[C@@H](Cc1ccc(O)cc1)C(=O)N[C@@H](Cc1ccc(O)cc1)C(=O)N[C@H](C(=O)N[C@@H](Cc1c[nH]cn1)C(=O)O)C(C)C (H-EEIYYYVH-OH) | 5.24 | 17.7 pM | 3.37 pmol | 2.38 | 32.9 | –
8 | CC[C@H](C)[C@H](NC(=O)[C@H](Cc1c[nH]cn1)NC(=O)[C@@H](N)CCC(=O)O)C(=O)N[C@@H](Cc1ccc(O)cc1)C(=O)N[C@@H](Cc1c[nH]cn1)C(=O)N[C@@H](CCCN=C(N)N)C(=O)N[C@@H](Cc1c[nH]cn1)C(=O)N[C@@H](CCSC)C(=O)O (H-EHIYHRHM-OH) | 8.27 | 2.73 pM | 0.33 pmol | – | – | –
9 | CC[C@H](C)[C@H](NC(=O)[C@H](CCCN=C(N)N)NC(=O)[C@@H](N)CCC(=O)O)C(=O)N[C@@H](Cc1ccc(O)cc1)C(=O)N[C@@H](C)C(=O)N[C@@H](CCCN=C(N)N)C(=O)N[C@H](C(=O)N[C@@H](CCCCN)C(=O)O)[C@@H](C)O (H-ERIYARTK-OH) | 6.79 | 22.9 pM | 3.37 pmol | 2.47 | 42.2 | –
10 | CC[C@H](C)[C@H](NC(=O)[C@H](CCCN=C(N)N)NC(=O)[C@@H](N)CC(C)C)C(=O)N[C@@H](Cc1ccc(O)cc1)C(=O)N[C@@H](CCC(=O)O)C(=O)N[C@@H](CCCN=C(N)N)C(=O)N1CCC[C@H]1C(=O)N[C@@H](CCCN=C(N)N)C(=O)O (H-LRIYERPR-OH) | 8.73 | 10.7 pM | 1.23 pmol | – | – | –
11 | CC[C@H](C)[C@H](NC(=O)[C@H](CCCN=C(N)N)NC(=O)[C@@H]1CCCN1)C(=O)N[C@@H](Cc1ccc(O)cc1)C(=O)N[C@@H](CC(=O)O)C(=O)N[C@H](C(=O)N1CCC[C@H]1C(=O)N[C@@H](Cc1ccc(O)cc1)C(=O)O)[C@@H](C)CC (H-PRIYDIPY-OH) | 5.97 | 9.5 pM | 1.59 pmol | – | – | –
12 | CC[C@H](C)[C@H](NC(=O)[C@H](Cc1ccc(O)cc1)NC(=O)[C@H](CC(=O)O)NC(=O)[C@H](Cc1ccc(O)cc1)NC(=O)[C@@H](NC(=O)[C@H](CCC(=O)O)NC(=O)[C@@H](N)Cc1ccc(O)cc1)[C@@H](C)CC)C(=O)N[C@@H](CCC(=O)O)C(=O)O (H-YEIYDYIE-OH) | 2.29 | 4.33 pM | 1.89 pmol | – | – | –
13 | CC[C@H](C)[C@H](NC(=O)[C@H](CCC(=O)O)NC(=O)[C@@H](N)Cc1ccc(O)cc1)C(=O)N[C@@H](Cc1ccc(O)cc1)C(=O)N[C@@H](CC(=O)O)C(=O)N[C@@H](Cc1ccc(O)cc1)C(=O)N[C@@H](Cc1ccc(O)cc1)C(=O)N[C@H](C(=O)O)C(C)C (H-YEIYDYYV-OH) | 2.91 | 7.89 pM | 2.71 pmol | – | – | –
14 | Bcr/Abl fusion protein (Homo sapiens) (from UniProt P00519+P11274) | – | – | – | – | – | Vmax [6]: 10.5 pmol/min; Vmax [7]: 5.27 pmol/min; Vmax [8]: 7.5 pmol/min; Vmax [9]: 4.64 pmol/min; Vmax [10]: 7.33 pmol/min; Vmax [11]: 5.1 pmol/min; Km [12]: 106 µM; Km [13]: 54 µM; Km [14]: 439 µM; Km [15]: 141 µM; Km [16]: 130 µM; Km [17]: 121 µM
